Key:
Assay in all cases: NCI 60 cell line screen
[1] = tested on: 786-0; assay type: cell-based; conditions: 786-0, Renal Cancer; single concentration 10^−5 M
Procedure: (§1) The cytotoxic activity of nortopsintin analogs (4a-4j) was determined by the national cancer institute (NCI, Bethesda, Maryland, USA) against 60 different cancer cell lines at a single concentration of (10^-5 M). For the determination of IC50 value, we used MTT assay kit (Sigma) according to the manufacturer's protocol. HCT-116 cells were seeded into a 96-well plate at a concentration of 20,000 cells/well. After 24 h, the media was aspirated and replaced with serum-free media containing serial dilutions of the 4i compound. […] The percentage of cytotoxicity was calculated using the following equation: % Cytotoxicity = [1 - ([…])] × 100.

[2] = tested on: A498; assay type: cell-based; conditions: A498, Renal Cancer; single concentration 10^−5 M
Procedure: as §1

[3] = tested on: A549/ATCC; assay type: cell-based; conditions: Non-Small Cell Lung Cancer, single concentration 10^−5 M
Procedure: as §1

[4] = tested on: BT-549; assay type: cell-based; conditions: BT-549, Breast Cancer; single concentration 10^−5 M
Procedure: as §1

[5] = tested on: CAKI-1; assay type: cell-based; conditions: CAKI-1, Renal Cancer; single concentration 10^−5 M
Procedure: as §1

[6] = tested on: COLO205; assay type: cell-based; conditions: COLO205, Colon Cancer; single concentration 10^−5 M
Procedure: as §1

[7] = tested on: EKVX; assay type: cell-based; conditions: Non-Small Cell Lung Cancer, single concentration 10^−5 M
Procedure: as §1

[8] = tested on: HCC-2998; assay type: cell-based; conditions: HCC-2998, Colon Cancer; single concentration 10^−5 M
Procedure: as §1

[9] = tested on: HCT-15; assay type: cell-based; conditions: HCT-15, Colon Cancer; single concentration 10^−5 M
Procedure: as §1

[10] = tested on: HT29; assay type: cell-based; conditions: HT29, Colon Cancer; single concentration 10^−5 M
Procedure: as §1

[11] = tested on: IGROV1; assay type: cell-based; conditions: IGROV1, Ovarian Cancer; single concentration 10^−5 M
Procedure: as §1

[12] = tested on: KM12; assay type: cell-based; conditions: KM12, Colon Cancer; single concentration 10^−5 M
Procedure: as §1

[13] = tested on: M14; assay type: cell-based; conditions: M14, Melanoma; single concentration 10^−5 M
Procedure: as §1

[14] = tested on: MCF7; assay type: cell-based; conditions: MCF7, Breast Cancer; single concentration 10^−5 M
Procedure: as §1

[15] = tested on: MDA-MB-231/ATCC; assay type: cell-based; conditions: Breast Cancer, single concentration 10^−5 M
Procedure: as §1

[16] = tested on: MDA-MB-435; assay type: cell-based; conditions: MDA-MB-435, Melanoma; single concentration 10^−5 M
Procedure: as §1

[17] = tested on: MDA-MB-468; assay type: cell-based; conditions: MDA-MB-468, Breast Cancer; single concentration 10^−5 M
Procedure: as §1

[18] = tested on: NCI-H226; assay type: cell-based; conditions: NCI-H226, Non-Small Cell Lung Cancer; single concentration 10^−5 M
Procedure: as §1

[19] = tested on: NCI-H23; assay type: cell-based; conditions: NCI-H23, Non-Small Cell Lung Cancer; single concentration 10^−5 M
Procedure: as §1

[20] = tested on: NCI/ADR-RES; assay type: cell-based; conditions: Ovarian Cancer, single concentration 10^−5 M
Procedure: as §1

[21] = tested on: OVCAR-3; assay type: cell-based; conditions: OVCAR-3, Ovarian Cancer; single concentration 10^−5 M
Procedure: as §1

[22] = tested on: OVCAR-4; assay type: cell-based; conditions: OVCAR-4, Ovarian Cancer; single concentration 10^−5 M
Procedure: as §1

[23] = tested on: OVCAR-8; assay type: cell-based; conditions: OVCAR-8, Ovarian Cancer; single concentration 10^−5 M
Procedure: as §1

[24] = tested on: PC-3; assay type: cell-based; conditions: PC-3, Prostate Cancer; single concentration 10^−5 M
Procedure: as §1

[25] = tested on: RPMI-8226; assay type: cell-based; conditions: RPMI-8226, Leukemia; single concentration 10^−5 M
Procedure: as §1

[26] = tested on: RXF 393; assay type: cell-based; conditions: RXF 393, Renal Cancer; single concentration 10^−5 M
Procedure: as §1

[27] = tested on: SF-539; assay type: cell-based; conditions: SF-539, CNS Cancer; single concentration 10^−5 M
Procedure: as §1

[28] = tested on: SK-MEL-5; assay type: cell-based; conditions: SK-MEL-5, Melanoma; single concentration 10^−5 M
Procedure: as §1

[29] = tested on: SK-OV-3; assay type: cell-based; conditions: SK-OV-3, Ovarian Cancer; single concentration 10^−5 M
Procedure: as §1

[30] = tested on: SNB-75; assay type: cell-based; conditions: SNB-75, CNS Cancer; single concentration 10^−5 M
Procedure: as §1

[31] = tested on: TK-10; assay type: cell-based; conditions: TK-10, Renal Cancer; single concentration 10^−5 M
Procedure: as §1

[32] = tested on: U251; assay type: cell-based; conditions: U251, CNS Cancer; single concentration 10^−5 M
Procedure: as §1

[33] = tested on: UACC-257; assay type: cell-based; conditions: UACC-257, Melanoma; single concentration 10^−5 M
Procedure: as §1

[34] = tested on: UACC-62; assay type: cell-based; conditions: UACC-62, Melanoma; single concentration 10^−5 M
Procedure: as §1

[35] = tested on: UO-31; assay type: cell-based; conditions: UO-31, Renal Cancer; single concentration 10^−5 M
Procedure: as §1

[36] = tested on: HCT-116; assay type: cell-based, human; conditions: HCT-116, Colon Cancer; single concentration 10^−5 M
Procedure: as §1

SMILES | Growth % [1] | Growth % [2] | Growth % [3] | Growth % [4] | Growth % [5] | Growth % [6] | Growth % [7] | Growth % [8] | Growth % [9] | Growth % [10] | Growth % [11] | Growth % [12] | Growth % [13] | Growth % [14] | Growth % [15] | Growth % [16] | Growth % [17] | Growth % [18] | Growth % [19] | Growth % [20] | other results
N#Cc1c(-c2ccccc2)cc(-c2c[nH]c3ccccc23)nc1-c1c[nH]c2ccccc12 [4a] | 102.19% | 98.67% | 98.73% | 94.69% | 87.26% | 108.26% | 83.07% | 93.57% | 99.26% | 102.69% | 82.09% | 102.51% | 100.81% | 94.97% | 92.64% | 102.63% | 93.05% | 89.89% | 95.64% | 98.30% | Growth % [21]: 109.77%; Growth % [22]: 103.65%; Growth % [23]: 98.73%; Growth % [24]: 92.44%; Growth % [25]: 100.70%; Growth % [26]: 94.99%; Growth % [27]: 98.60%; Growth % [28]: 99.18%; Growth % [29]: 93.31%; Growth % [30]: 81.21%; Growth % [31]: 123.79%; Growth % [32]: 94.26%; Growth % [33]: 106.98%; Growth % [34]: 94.92%; Growth % [35]: 68.28%; Growth % [36]: 103.11%
N#Cc1c(-c2ccc(Br)cc2)cc(-c2c[nH]c3ccccc23)nc1-c1c[nH]c2ccccc12 [4b] | 101.55% | 95.35% | 98.58% | 103.55% | 81.43% | 111.43% | 85.89% | 114.86% | 97.86% | 107.82% | 73.65% | 99.86% | 102.89% | 85.19% | 101.07% | 108.30% | 104.30% | 87.72% | 93.93% | 99.61% | Growth % [21]: 102.43%; Growth % [22]: 102.16%; Growth % [23]: 96.50%; Growth % [24]: 93.93%; Growth % [25]: 102.03%; Growth % [26]: 109.74%; Growth % [27]: 97.32%; Growth % [28]: 97.46%; Growth % [29]: 100.81%; Growth % [30]: 91.48%; Growth % [31]: 146.78%; Growth % [32]: 94.64%; Growth % [33]: 107.82%; Growth % [34]: 94.51%; Growth % [35]: 71.05%; Growth % [36]: 104.37%
N#Cc1c(-c2ccc(Cl)cc2)cc(-c2c[nH]c3ccccc23)nc1-c1c[nH]c2ccccc12 [4c] | 102.38% | 97.38% | 100.29% | 113.43% | 87.84% | 106.5% | 87.50% | 117.80% | 98.27% | 107.41% | 91.10% | 102.73% | 102.44% | 89.99% | 97.80% | 106.56% | 102.95% | 96.15% | 89.48% | 98.53% | Growth % [21]: 107.09%; Growth % [22]: 106.75%; Growth % [23]: 101.97%; Growth % [24]: 100.13%; Growth % [25]: 102.27%; Growth % [26]: 114.27%; Growth % [27]: 98.85%; Growth % [28]: 99.39%; Growth % [29]: 91.24%; Growth % [30]: 100.87%; Growth % [31]: 138.81%; Growth % [32]: 99.27%; Growth % [33]: 108.88%; Growth % [34]: 89.22%; Growth % [35]: 70.21%; Growth % [36]: 106.26%
